{
  "source": "patent US8729014B2",
  "about": "“Specific HCV NS3 protease inhibitors” (RFS Pharma, LLC, priority 2010, dated 2014)",
  "key": {"Thrombin": {"target": "T1, Thrombin (Homo sapiens, UniProt P00734)", "T1 construct": "purchased Anaspec", "assay": "Inhibition of human proteases: thrombin", "type": "biochemical", "procedure": "(§1) In an effort to circumvent similar toxicities, new protease inhibitors were evaluated for inhibition of a panel of important human proteases. The enzymes tested are Elastase (Neutrophil), Plasmin, Thrombin, and Cathepsin S.\nPlasmin and Thrombin(Sensolyte RH110 Plasmin Activity Assay Kit and Sensolyte Thrombin Activity Assay Kit (Anaspec)): Reactions were conducted in a sample volume of 100 μL per well in a black 96 well plate. Protocol A was followed from the kit insert where the 2× assay buffer was diluted 1:1 with deionized water. Included in each assay were a positive control (diluted enzyme and no test compound), inhibitor control (contains diluted enzyme and plasmin inhibitor; component E from the kit or thrombin inhibitor; N-α-NAPAP synthetic inhibitor) and substrate control (assay buffer and substrate). Vehicle and autofluorescence controls were also performed. Drug dilutions were added (10 μL) at 10× concentrations in assay buffer. The enzyme was added at 40 μL/well at a concentration of 0.25 μg/mL (plasmin) and 1 μg/mL (thrombin) to all wells except the substrate control. Finally, 50 μL assay buffer containing substrate was added to each well. […] The fluorescence intensity was read on the Victor 3 plate reader at Ex/Em=490 nm/520 nm. […] Results are shown as substrate control adjusted percentages of maximum absorbance, which was given by the positive control."}, "Cathepsin S": {"target": "T2, Cathepsin S (Homo sapiens, UniProt P25774)", "T2 construct": "purchased Anaspec", "T2 sequence (P25774 115-331)": "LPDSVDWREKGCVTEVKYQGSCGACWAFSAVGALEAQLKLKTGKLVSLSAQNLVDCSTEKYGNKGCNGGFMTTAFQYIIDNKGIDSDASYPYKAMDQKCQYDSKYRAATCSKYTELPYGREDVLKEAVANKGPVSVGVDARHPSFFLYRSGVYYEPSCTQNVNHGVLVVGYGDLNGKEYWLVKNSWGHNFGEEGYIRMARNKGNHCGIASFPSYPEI", "assay": "Inhibition of human proteases: cathepsin S", "type": "biochemical", "procedure": "as §1\nCathespsin S (Sensolyte Cathepsin S Activity Assay Kit (Anaspec)): Reactions were conducted in a sample volume of 100 μL per well in a black 96 well plate. Protocol A was followed from the kit insert where DTT was added to assay buffer to yield a […] concentration. Included in each assay were a positive control (diluted enzyme and no test compound), inhibitor control (contains diluted enzyme and plasmin inhibitor; component E or thrombin inhibitor; N-a-NAPAP synthetic inhibitor) and substrate control (assay buffer and substrate). Vehicle and autofluorescence controls were also performed. Drug dilutions were added (10 μL) at 10× concentrations in assay buffer. The cathepsin S was added at 40 μL/well at a concentration of 2.5 μg/mL to all wells except the substrate control. Finally, 50 µL of assay buffer containing substrate was added to each well. The substrate was added to a final concentration of 16 nM. […] The fluorescence intensity was read on the Victor 3 plate reader at Ex/Em=490 nm/520 nm. […] Results are shown as substrate control adjusted percentages of maximum absorbance, which was given by the positive control."}, "Chymase": {"target": "Chymase (Homo sapiens, UniProt P23946)", "sequence (P23946 22-247)": "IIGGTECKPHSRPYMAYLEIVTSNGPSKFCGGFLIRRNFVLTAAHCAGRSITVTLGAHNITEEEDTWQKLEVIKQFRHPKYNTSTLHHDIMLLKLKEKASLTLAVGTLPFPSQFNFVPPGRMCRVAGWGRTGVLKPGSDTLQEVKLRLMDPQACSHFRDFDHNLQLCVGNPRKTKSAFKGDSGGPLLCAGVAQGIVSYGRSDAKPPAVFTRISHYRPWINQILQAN", "assay": "Inhibition of human proteases: chymase", "type": "biochemical"}, "[1]": {"target": "Hepatitis C Virus NS3/4A protease T54A (Hepatitis C virus genotype 1b, UniProt O92972, T1080A)", "sequence (O92972 1027-1657 T1080A)": "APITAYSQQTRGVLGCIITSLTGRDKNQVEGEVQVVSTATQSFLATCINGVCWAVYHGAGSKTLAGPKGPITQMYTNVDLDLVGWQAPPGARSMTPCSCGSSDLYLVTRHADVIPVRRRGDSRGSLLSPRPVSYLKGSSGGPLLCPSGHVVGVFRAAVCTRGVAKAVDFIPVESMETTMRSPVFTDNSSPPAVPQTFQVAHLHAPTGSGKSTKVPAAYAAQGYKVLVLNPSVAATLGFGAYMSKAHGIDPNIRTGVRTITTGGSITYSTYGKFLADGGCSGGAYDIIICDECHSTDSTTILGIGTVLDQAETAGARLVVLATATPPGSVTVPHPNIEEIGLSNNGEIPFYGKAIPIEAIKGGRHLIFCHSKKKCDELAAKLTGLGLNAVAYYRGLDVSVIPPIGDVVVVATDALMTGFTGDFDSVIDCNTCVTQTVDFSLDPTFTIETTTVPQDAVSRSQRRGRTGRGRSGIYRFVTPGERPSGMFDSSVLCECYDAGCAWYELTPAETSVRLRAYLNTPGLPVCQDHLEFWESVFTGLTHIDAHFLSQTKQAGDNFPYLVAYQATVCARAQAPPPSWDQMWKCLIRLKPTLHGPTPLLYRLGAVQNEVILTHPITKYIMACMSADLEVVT", "sequence (O92972 1658-1711 partner limits assumed)": "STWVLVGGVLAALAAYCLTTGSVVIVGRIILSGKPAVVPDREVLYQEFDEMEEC", "assay": "biochemical"}, "[2]": {"tested_on": "Hepatitis C Virus NS3/4A protease T54A", "assay": "biochemical", "conditions": "T54A vs Wild Type"}, "[3]": {"tested_on": "Huh 7 Clone B cells (rRNA)", "assay": "HCV replicon assay, cytotoxicity by rRNA", "type": "cell-based", "conditions": "five days", "procedure": "(§2) Huh 7 Clone B cells containing HCV replicon RNA would be seeded in a 96-well plate at 5000 cells/well, and the compounds tested at 10 μM in triplicate immediately after seeding. Following five days incubation (37° C., 5% CO2), total cellular RNA was isolated by using versaGene RNA purification kit from Gentra. Replicon RNA and an internal control (TaqMan rRNA control reagents, Applied Biosystems) were amplified in a single step multiplex Real Time RT-PCR Assay. The antiviral effectiveness of the compounds was calculated by subtracting the threshold RT-PCR cycle of the test compound from the threshold RT-PCR cycle of the no-drug control (ΔCt HCV). A ΔCt of 3.3 equals a 1-log reduction (equal to 90% less starting material) in Replicon RNA levels. The cytotoxicity of the compounds was also calculated by using the ΔCt rRNA values. (2′-Me-C) was used as the control. To determine EC90 and IC50 values^2, ΔCt: values were first converted into fraction of starting material^3 and then were used to calculate the % inhibition."}, "[4]": {"tested_on": "cellular rRNA (cytotoxicity marker)", "assay": "HCV replicon assay, cytotoxicity by rRNA", "type": "cell-based", "conditions": "human, Huh 7 Clone B cells containing HCV replicon RNA; rRNA, Huh 7 Clone B cells", "procedure": "as §2"}, "[5]": {"tested_on": "Hepatitis C Virus NS3/4A protease R155K", "assay": "biochemical", "conditions": "R155K vs Wild Type"}, "[6]": {"target": "Hepatitis C Virus NS3/4A protease R155K (Hepatitis C virus genotype 1b, UniProt O92972, R1181K)", "sequence (O92972 1027-1657 R1181K)": "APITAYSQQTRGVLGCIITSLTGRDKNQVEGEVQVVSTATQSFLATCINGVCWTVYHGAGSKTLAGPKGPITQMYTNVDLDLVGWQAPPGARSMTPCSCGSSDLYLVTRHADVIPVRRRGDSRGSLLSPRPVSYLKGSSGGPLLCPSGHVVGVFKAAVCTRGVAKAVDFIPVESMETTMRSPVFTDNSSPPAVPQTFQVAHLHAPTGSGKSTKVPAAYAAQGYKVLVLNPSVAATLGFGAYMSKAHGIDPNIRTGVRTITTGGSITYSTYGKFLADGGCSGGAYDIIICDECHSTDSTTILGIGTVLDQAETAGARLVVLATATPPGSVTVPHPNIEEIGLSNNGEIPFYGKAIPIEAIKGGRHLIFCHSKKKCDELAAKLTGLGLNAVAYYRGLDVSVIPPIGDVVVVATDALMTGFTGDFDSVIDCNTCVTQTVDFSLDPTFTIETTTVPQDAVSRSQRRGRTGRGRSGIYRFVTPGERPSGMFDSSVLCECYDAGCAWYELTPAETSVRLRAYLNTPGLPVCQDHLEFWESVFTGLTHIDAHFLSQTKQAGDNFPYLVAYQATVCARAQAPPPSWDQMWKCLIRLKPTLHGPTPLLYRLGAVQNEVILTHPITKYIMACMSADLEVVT", "sequence (O92972 1658-1711 partner limits assumed)": "as the sequence (O92972 1658-1711 partner limits assumed) above", "assay": "biochemical"}, "[7]": {"assay": "Cytotoxicity assay in human PBM cells", "type": "cell-based", "conditions": "human, human PBM cells", "procedure": "(§3) The toxicity of the compounds was assessed in Vero, human PBM, CEM (human lymphoblastoid), MT-2, and HepG2 cells, as described previously (see Schinazi R. F., Sommadossi J.-P., Saalmann V., Cannon D. L., Xie M.-Y., Hart G. C., Smith G. A. & Hahn E. F. Antimicrob. Agents Chemother. 1990, 34, 1061-67). Cycloheximide was included as positive cytotoxic control, and untreated cells exposed to solvent were included as negative controls. The cytotoxicity IC50 was obtained from the concentration-response curve using the median effective method described previously (see Chou T.-C. & Talalay P. Adv. Enzyme Regul. 1984, 22, 27-55; Belen'kii M. S. & Schinazi R. F. Antiviral Res. 1994, 25,1-11)."}, "human PBM cells": {"tested_on": "human PBM cells", "assay": "Cytotoxicity assay in human PBM cells", "type": "cell-based", "conditions": "Homo sapiens, PBMC; PBM cells, 100 μM", "procedure": "as §3"}, "[8]": {"target": "Hepatitis C Virus NS3/4A protease A156S (Hepatitis C virus genotype 1b, UniProt O92972, A1182S)", "sequence (O92972 1027-1657 A1182S)": "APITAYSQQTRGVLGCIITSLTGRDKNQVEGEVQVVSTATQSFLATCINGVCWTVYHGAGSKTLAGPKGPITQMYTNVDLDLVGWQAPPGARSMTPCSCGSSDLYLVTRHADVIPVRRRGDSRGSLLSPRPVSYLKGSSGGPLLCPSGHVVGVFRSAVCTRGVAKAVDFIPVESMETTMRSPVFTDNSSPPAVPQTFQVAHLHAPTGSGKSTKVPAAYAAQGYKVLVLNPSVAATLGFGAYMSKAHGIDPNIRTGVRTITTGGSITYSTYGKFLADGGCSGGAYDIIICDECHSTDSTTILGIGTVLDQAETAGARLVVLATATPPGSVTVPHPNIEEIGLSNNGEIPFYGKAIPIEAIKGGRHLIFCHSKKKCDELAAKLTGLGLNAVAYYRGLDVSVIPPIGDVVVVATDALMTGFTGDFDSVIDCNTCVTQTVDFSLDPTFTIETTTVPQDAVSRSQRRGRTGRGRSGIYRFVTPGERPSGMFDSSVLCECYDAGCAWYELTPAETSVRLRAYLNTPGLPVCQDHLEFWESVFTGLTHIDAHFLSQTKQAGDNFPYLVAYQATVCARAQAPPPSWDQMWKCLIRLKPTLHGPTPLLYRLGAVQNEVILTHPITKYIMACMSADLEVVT", "sequence (O92972 1658-1711 partner limits assumed)": "as the sequence (O92972 1658-1711 partner limits assumed) above", "assay": "biochemical"}, "[9]": {"tested_on": "Hepatitis C Virus NS3/4A protease A156S", "assay": "biochemical", "conditions": "A156S vs Wild Type"}},
  "data": [
    {"smiles": "C=C[C@@H]1C[C@]1(NC(=O)[C@@H]1C[C@@H](OC(=O)N2Cc3cccc(F)c3C2)CN1C(=O)[C@@H](NC(=O)OC(C)(C)C)C(C)(C)C)C(=O)NS(=O)(=O)C1CC1", "note": "[Compound 10]", "values": [
      {"measurement": "IC50", "setting": "Thrombin", "result": "> 100", "unit": "µM"},
      {"measurement": "IC50", "setting": "Cathepsin S", "result": "> 100", "unit": "µM"},
      {"measurement": "IC50", "setting": "Chymase", "result": "> 100", "unit": "µM"},
      {"measurement": "EC50", "setting": "[1]", "result": 0.07, "unit": "µM"},
      {"measurement": "EC90", "setting": "[1]; T54A, read-out: Anti-HCV protease activity EC90", "result": 0.85, "unit": "µM"},
      {"measurement": "Fold Increase of EC50", "setting": "[2]", "result": 15.0},
      {"measurement": "Fold Increase of EC90", "setting": "[2]", "result": 28.5},
      {"measurement": "DCt rRNA", "setting": "[3]; Conc 0.01 μM", "result": "−0.21"},
      {"measurement": "rRNA (% inhibition)", "setting": "[3]; Conc 0.01 μM", "result": "−15.99"},
      {"measurement": "DCt rRNA", "setting": "[3]; Conc 0.03 μM", "result": "−0.49"},
      {"measurement": "rRNA (% inhibition)", "setting": "[3]; Conc 0.03 μM", "result": "−40.10"},
      {"measurement": "DCt rRNA", "setting": "[3]; Conc 0.1 μM", "result": "−0.09"},
      {"measurement": "rRNA (% inhibition)", "setting": "[3]; Conc 0.1 μM", "result": "−6.27"},
      {"measurement": "DCt rRNA", "setting": "[3]; Conc 0.3 μM", "result": 0.14},
      {"measurement": "rRNA (% inhibition)", "setting": "[3]; Conc 0.3 μM", "result": 9.35},
      {"measurement": "CC50 at 5 days", "setting": "[4]", "result": "> 0.3", "unit": "µM"},
      {"measurement": "Fold Increase of EC50", "setting": "[5]", "result": 55.8},
      {"measurement": "Fold Increase of EC90", "setting": "[5]", "result": 91.4},
      {"measurement": "EC50", "setting": "[6]", "result": 0.27, "unit": "µM"},
      {"measurement": "EC90", "setting": "[6]; R155K, read-out: Anti-HCV protease activity EC90", "result": 2.7, "unit": "µM"},
      {"measurement": "IC50", "setting": "[7]", "result": "> 100", "unit": "µM"},
      {"measurement": "inhibition at 100 µM", "setting": "human PBM cells", "result": 17, "unit": "%"},
      {"measurement": "EC50", "setting": "[8]", "result": 0.008, "unit": "µM"},
      {"measurement": "EC90", "setting": "[8]; A156S, read-out: Anti-HCV protease activity EC90", "result": 0.085, "unit": "µM"},
      {"measurement": "Fold Increase of EC50", "setting": "[9]", "result": 1.6},
      {"measurement": "Fold Increase of EC90", "setting": "[9]", "result": 2.9}
    ]}
  ]
}
